Among the data in paper PMC2134300 (The Journal of Cell Biology, 1997) are IC50 values, retold here.

Residues, ends and D or L forms follow the SMILES beside them. *: point of attachment. Cbz = O=C(OCc1ccccc1)*; CH2Cl = ClC*; CH2F = FC*

This test has as its target T1, T. cruzi oligopeptidase B (rPEP, recombinant 120-kD peptidase) (Trypanosoma cruzi, UniProt Q94795).
T1 sequence (Q94795 1-714): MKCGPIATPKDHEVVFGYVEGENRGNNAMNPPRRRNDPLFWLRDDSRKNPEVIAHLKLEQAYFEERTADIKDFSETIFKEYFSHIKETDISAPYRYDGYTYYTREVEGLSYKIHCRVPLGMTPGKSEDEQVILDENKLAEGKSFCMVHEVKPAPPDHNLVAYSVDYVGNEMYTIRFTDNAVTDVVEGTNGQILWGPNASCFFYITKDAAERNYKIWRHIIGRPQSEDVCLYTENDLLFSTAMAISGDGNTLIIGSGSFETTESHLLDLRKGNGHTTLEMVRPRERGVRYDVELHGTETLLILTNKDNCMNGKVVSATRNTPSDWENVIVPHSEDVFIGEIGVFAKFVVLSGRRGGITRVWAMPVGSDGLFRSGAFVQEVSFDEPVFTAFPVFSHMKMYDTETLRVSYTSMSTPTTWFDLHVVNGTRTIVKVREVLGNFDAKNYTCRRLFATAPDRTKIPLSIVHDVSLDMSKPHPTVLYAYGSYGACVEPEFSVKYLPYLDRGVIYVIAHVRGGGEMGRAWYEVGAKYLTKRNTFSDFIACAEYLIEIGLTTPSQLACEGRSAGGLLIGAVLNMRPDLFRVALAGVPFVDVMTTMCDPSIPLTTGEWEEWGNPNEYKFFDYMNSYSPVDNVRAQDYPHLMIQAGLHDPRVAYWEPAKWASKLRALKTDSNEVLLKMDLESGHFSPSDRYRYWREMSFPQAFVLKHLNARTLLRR
The test is described as follows: fluorimetric inhibition of Z-Phe-Arg-AMC hydrolysis. Format: biochemical.
Regarding `Cc1ccc(S(=O)(=O)N[C@@H](CCCCN)C(=O)CCl)cc1` [N-α-p-tosyl-l-lysine-chloromethyl ketone], the IC50 turned out to be 600 nM. The result for `N=C(N)NCCC[C@H](NC(=O)[C@H](Cc1ccccc1)NC(=O)OCc1ccccc1)C(=O)CF` [Z-Phe-Arg-fluoromethylketone] (Cbz-Phe-Arg-CH2F) reads 250 nM.

In the case of `CC(=O)N[C@@H](CCCNC(=N)N)C(=O)N[C@@H](CCCNC(=N)N)C(=O)CCl` [acetylArg-Arg-chloromethylketone] (Ac-Arg-Arg-CH2Cl), the IC50 stood at 200 nM. The result for `O=C(O)c1cc[c]([Hg][Cl])cc1` [p-chloromercuribenzoic acid] reads 330 nM.

In general, IC50 refers to the concentration that inhibits the measured activity by half.
